According to article PMC7906020, “Trp-Containing Antibacterial Peptides Impair Quorum Sensing and Biofilm Development in Multidrug-Resistant Pseudomonas aeruginosa and Exhibit Synergistic Effects With Antibiotics” (Frontiers in Microbiology, 2021):
≈ marks a conversion by molar mass, not a printed value. Where “and” joins values, the source holds several entries; their conditions need not be identical. Equal values may be shown once. Read-outs that look alike come from different tables or passages of the source. Peptide text beside a SMILES is read from it.

Key:
[1] = cited from earlier work
Description: Supplement Table_1.docx, table 1: Table S1 Biological characteristics and antibacterial activities of the Trp-containing antimicrobial peptides (32) | column: Hemolysis (μM)

MRPA0108 strain [2] = conditions: previous study, ref Han et al., 2020; cited from earlier work
Description: Supplement Table_1.docx, table 1: Table S1 Biological characteristics and antibacterial activities of the Trp-containing antimicrobial peptides (32) | column: MIC(μM)

[3] = test system: rhamnolipid production in MRPA0108; experiment: Rhamnolipid production, orcinol method; assay type: cell-based, Pseudomonas aeruginosa; conditions: peptide at 1/4 × MIC, 24 h, absorbance 420 nm, vs control, triplicate
Experimental: (§1) The culture supernatant was obtained after centrifugation at 12,000×g for 10 min. (1) LasB elastase activity was measured using elastin-Congo red (ECR) as the substrate, as described by [Pattnaik et al. (2018)]. Briefly, 100 μl of the culture supernatant was added to 900 μl of ECR buffer (100 mM Tris-HCl, 1 mM CaCl2, pH 7.5) containing 10 mg of ECR and then incubated with shaking at 37°C for 18 h. Then, 100 μl of 0.12 M EDTA was added to stop the reaction. The insoluble ECR was removed by centrifugation, and the supernatant absorbance was measured at 495 nm. The optical density (OD) 495 nm/OD 600 nm represents the elastase activity. (2) LasA protease activity was measured as follows ([Pattnaik et al., 2018]): first, the culture supernatant was filtered to remove the bacterial cells, and then 150 μl of sterile-filtered supernatant was added to 2% azocasein (prepared in 50 mM Tris-HCl) and incubated for 4 h at 37°C. Trichloroacetic acid (TCA, 10%) was added to precipitate the undigested substrate. After centrifugation at 10,000 rpm for 10 min, 1 M NaOH was added to the supernatant, and the relative protease activity was measured at OD 440 nm. (3) The pyocyanin assay was based on the absorbance of excreted pyocyanin at 520 nm in an acidic solution ([Kong et al., 2005]). Three milliliters of culture supernatant were mixed with 2 ml of chloroform for 20 min, and then the pyocyanin from the chloroform phase was reextracted using 0.2 M HCl for 15 min to obtain a pink-colored pyocyanin solution. The OD 520 nm was measured to evaluate the change in pyocyanin content. (4) Rhamnolipid detection was carried out as previously described ([Wittgens et al., 2011]). Briefly, 500 μl of culture supernatant was mixed with 500 μl of ethyl acetate and vortexed vigorously for 15 s to extract rhamnolipid. After centrifugation at 10,000×g for 5 min at 4°C, the organic phase containing rhamnolipids was obtained and evaporated at room temperature overnight. The rhamnolipid extract dissolved in ultrapure water was mixed with orcinol reagent (0.19% orcinol in 53% H2SO4) and incubated at 80°C for 30 min. The absorbance was measured at 420 nm. (5) The level of C4-HSL was quantified by GC-MS as previously described ([Guo et al., 2012]).

MRPA0108 = experiment: Checkerboard assay (FICI) of peptides with antibiotics; assay type: cell-based, Pseudomonas aeruginosa; conditions: MRPA0108, 24 h 37°C, median of at least three experiments, synergy ≤ 0.5, additive 0.5-1, indifference 1-2
Experimental: The synergistic effect of peptides and antibiotics was evaluated using the checkerboard method, in which the fractional inhibitory concentration index (FICI) was used to analyze the type of interaction between compounds ([Berditsch et al., 2015]). A 100 μl inoculum of 10^5 CFU/ml planktonic bacteria was added to the respective wells of 96-well microtiter plates, and then serial dilutions of peptide and antibiotic at 100 μl volumes were added to each well and incubated at 37°C for 24 h. The OD 600 nm value was measured with a microplate plate reader (Varioskan Flash Microplate Reader, Thermo Fisher Scientific Co., Beijing) as an indicator of growth inhibition. The resulting checkerboard contained each combination of peptide and antibiotic in 9 doubly increasing concentrations, with wells containing the highest concentration of each antibiotic at opposite corners. The concentrations tested for every combination of peptide-antibiotic were their respective MICs. MH medium and the peptide/antibiotic combination served as negative and positive controls, respectively. The FICI is calculated as FICa plus FICb, where FICa is the MIC of the peptide in the presence of antibiotics/the MIC of the peptide alone, and FICb is the MIC of the antibiotic in the presence of peptide/the MIC of the antibiotic alone. Drug interactions were defined as follows: synergy, FICI ≤ 0.5; additive effect, 0.5 < FICI ≤ 1; and indifference, 1 < FICI ≤ 2 ([Hollander et al., 1998]; [Yoon et al., 2004]). The results were recorded in at least three independent experiments, and the median FICI values were used in the analysis.

[4] = test system: β-lactamase activity in MRPA0108 cells; experiment: β-Lactamase activity assay (nitrocefin kit) in treated cells; assay type: cell-based, Pseudomonas aeruginosa; conditions: MRPA0108 cells treated with antibiotic alone, compared to control
Experimental: β-lactamase activity was measured by using a β-lactamase assay kit (YIASEN Biotech Co., Ltd., Shanghai, China) according to the manufacturer’s instructions. Briefly, mid-log growth-phase bacteria were diluted to 1 × 10^8 CFU/ml and treated with I1W or L12W at concentrations ranging from 3.13 to 50 μM for 12 h at 37°C. After induction, the cultures were harvested by centrifugation at 5,000 rpm at 4°C, washed three times with PBS buffer (pH 7.2), and then resuspended in the same buffer. The cells were sonicated on ice for 15 min, and the cell lysates containing β-lactamase were collected by centrifugation at 12,000 rpm for 30 min at 4°C. Fifty microliters of the prepared β-lactamase-containing lysates was mixed with 50 μl of assay buffer containing nitrocefin and reacted at room temperature in a dark environment for 20 min. Nitrocefin hydrolysis was measured spectrophotometrically at 490 nm. Concurrently, the total protein content was determined with a Bradford assay using the same supernatant. One milliunit of β-lactamase is defined as 1 nanomole of nitrocefin hydrolyzed per minute per microgram of protein.

MRPA0108 strain [5] = experiment: MIC of antibiotics alone and in combination with 1/4 × MIC peptide; assay type: cell-based, Pseudomonas aeruginosa; conditions: for fold reduction of MIC of the antibiotic: antibiotic in combination with Trp-containing peptides at 1/4 × MIC, range over the peptides
Experimental: FIGURE 6 Antibacterial activity of antibiotics in combination with the Trp-containing peptides. Bacterial cultures were treated with a series of concentration of antibiotics ceftazidime (A), piperacillin (B), and levofloxacin (C) in the absence (control) and presence of a 1/4 × MIC peptide concentration at 37C overnight. The OD600 was recorded using a microtiter plate reader. The MIC was defined as the lowest antibiotics concentration that inhibited 95% of the bacterial growth. Phenylalanyl arginyl β-naphthylamide (PAβN), a broad-spectrum inhibitor for efflux pump, was used as a positive control. Each data point represents an average of six independent experiments. *P < 0.05 and **P < 0.01 indicate statistically significant differences between antibiotics alone and antibiotics in combination with peptide.

MRPA0108 biofilms = experiment: Confocal laser scanning microscopy of biofilms (LIVE/DEAD staining); assay type: cell-based, Pseudomonas aeruginosa; conditions: 24 h; for percentage of dead/live cells in biofilm: SYTO9/PI, control 8.7%
Experimental: Biofilms of MRPA0108 were visualized by confocal microscopy. Mid-log growth-phase bacteria were diluted to 1 × 10^7 CFU/ml. […] LB liquid medium and erythromycin were used as negative and positive controls, respectively. After incubation, the supernatant was removed, and the slides were washed and stained in a dark environment for 30 min using a LIVE/DEAD BacLight^TM Bacterial Viability Kit (Invitrogen, Life Technologies, Shanghai, China). The slides were washed three times and imaged with a confocal laser scanning microscope (LSM 710, Carl Zeiss, Germany) with excitation/emission wavelengths of 480/500 and 490/635 nm for SYTO9 and propidium iodide (PI), respectively. SYTO9 was used to indicate live bacteria, and PI was used to mark dead bacteria.

[6] = test system: alginate production in MRPA0108; experiment: Alginate determination, H2SO4-carbazole method; assay type: cell-based, Pseudomonas aeruginosa; conditions: OD 530 nm
Experimental: (§2) Exopolysaccharides were determined using the phenol-H2SO4 method. Briefly, after incubation, the cultures were centrifuged at 10,000 rpm for 15 min, and the pellets were resuspended in high-salt buffer (10 mM KPO4, 5 mM NaCl, 2.5 mM MgSO4, pH 7.0), followed by recentrifugation at 10,000 rpm for 30 min. The resulting supernatant was mixed with three volumes of chilled ethanol (100%) and incubated overnight at 4°C. The precipitated exopolysaccharide was added to a mixture containing cold phenol and H2SO4, and the absorbance of the solution was measured at 490 nm. Alginate content was determined using the H2SO4-carbazole method. Briefly, after incubation, the precooled cultures were mixed with an H2SO4 solution (4:1) and vortexed in ice water, and then 0.2% carbazole dissolved in ethanol was added. The mixture was revortexed and incubated at 55°C for 30 min, and the OD 530 nm was measured.

[7] = test system: LasB elastase of MRPA0108; experiment: LasB elastase activity, elastin-Congo red method; assay type: cell-based, Pseudomonas aeruginosa; conditions: peptide at 1/4 × MIC, 24 h, 37°C; ECR substrate, OD495/OD600; vs control; triplicate
Experimental: as §1, with “The rhamnolipid extract dissolved in ultrapure water was mixed with orcinol reagent (0.19% orcinol in 53% H2SO4) and incubated at 80°C for 30 min.” left out

[8] = test system: exopolysaccharide production in MRPA0108; experiment: Exopolysaccharide determination, phenol-H2SO4 method; assay type: cell-based, Pseudomonas aeruginosa; conditions: phenol-H2SO4, 490 nm
Experimental: as §2

[9] = lowest concentration inhibiting 95% of growth, overnight 37°C, six experiments

Molecule	Hemolysis [1]	MIC (MRPA0108 strain [2])	inhibition of rhamnolipid production [3]	FICI in combination with ceftazidime (MRPA0108)	FICI in combination with piperacillin (MRPA0108)	fold reduction of MIC of the antibiotic (MRPA0108 strain [5])	further results
IKKWWSKIKKLLK-NH2 [I4WL5W]	> 500 µM	12.5 µM	37.5%	0.43	0.68	–	FICI in combination with levofloxacin (MRPA0108): 1.12
WKKIWSKIKKLLK-NH2 [I1WL5W]	> 500 µM	12.5 µM	38.8%	0.37	0.59	–	FICI in combination with levofloxacin (MRPA0108): 0.75
CCN1CCN(C(=O)N[C@@H](C(=O)N[C@@H]2C(=O)N3[C@@H]2SC(C)(C)[C@@H]3C(=O)O)c2ccccc2)C(=O)C1=O [piperacillin, reference compound]	–	–	–	–	–	2–11 fold	increase of β-lactamase activity [4]: 1.8 fold
CC[C@H](C)[C@H](N)C(=O)N[C@@H](CCCCN)C(=O)N[C@@H](CCCCN)C(=O)N[C@@H](Cc1c[nH]c2ccccc12)C(=O)N[C@@H](CC(C)C)C(=O)N[C@@H](CO)C(=O)N[C@@H](CCCCN)C(=O)N[C@H](C(=O)N[C@@H](CCCCN)C(=O)N[C@@H](CCCCN)C(=O)N[C@@H](CC(C)C)C(=O)N[C@@H](CC(C)C)C(=O)N[C@@H](CCCCN)C(N)=O)[C@@H](C)CC [I4W] (H-IKKWLSKIKKLLK-NH2; N-terminus and C-terminus assumed)	> 500 µM	6.25 µM (≈ 10.2 µg/mL)	43.9%	–	–	–	average biofilm thickness (MRPA0108 biofilms; after treatment with low concentrations of peptide (1 × MIC or 2 × MIC), 37°C, control biofilm 6 μm): 1.5–2.5 μm; percentage of dead/live cells in biofilm (MRPA0108 biofilms; peptide at 1 × MIC): 31.2%; percentage of dead/live cells in biofilm (MRPA0108 biofilms; peptide at 2 × MIC): 41.7%; inhibition of alginate production ([6]; peptide at 1/4 × MIC): 47%; inhibition of alginate production ([6]; peptide at 1 × MIC): 68%; decrease of LasB elastase activity [7]: 22.3%; reduction of exopolysaccharide production ([8]; peptide at 1/4 × MIC, overnight 37°C): 25.0%; reduction of exopolysaccharide production ([8]; peptide at 1 × MIC): 65.2%; reduction of exopolysaccharide production ([8]; peptide concentration increased onefold from 1/4 × MIC): 42.4%
IKKILSKIKKWLK-NH2 [L11W]	–	25 µM	24.3%	0.25	0.28–0.49 and 0.34	–	Hemolysis ([1]; as previously reported, ref Bi et al., 2013): > 500 µM
C[C@H]1COc2c(N3CCN(C)CC3)c(F)cc3c(=O)c(C(=O)O)cn1c23 [levofloxacin]	–	–	–	–	–	0–4 fold	–
CC(C)(O/N=C(\C(=O)N[C@@H]1C(=O)N2C(C(=O)[O-])=C(C[n+]3ccccc3)CS[C@H]12)c1csc(N)n1)C(=O)O [ceftazidime]	–	–	–	–	–	8–32 fold	increase of β-lactamase activity [4]: fourfold; MIC of antibiotic alone (MRPA0108 strain [5]; [9]): 30 µM; MIC of antibiotic in combination with 1/4 × MIC L12W (MRPA0108 strain [5]; [9]): 0.94 µM
